Where a chain is given by its changes, count along the chain named. pKd: −log10 of the molar value. Entries after “also recorded” stand apart in the source; their conditions may differ. Where two headings read alike, the source gives them in different places.
Legend:
Experiment in all cases: PapG Luminex ligand binding at equilibrium
[1] = target: T1, E. coli CFT073 PapG-II lectin domain PapGLD variant N96S G104A, SEQ ID NO: 16 (Escherichia coli, UniProt A0A0H2VAQ6, G124A/N116S); conditions: for pKd: HEPES pH 7.4, 4° C. overnight
T1 sequence (A0A0H2VAQ6 with tags, fused parts or gaps N116S/G124A): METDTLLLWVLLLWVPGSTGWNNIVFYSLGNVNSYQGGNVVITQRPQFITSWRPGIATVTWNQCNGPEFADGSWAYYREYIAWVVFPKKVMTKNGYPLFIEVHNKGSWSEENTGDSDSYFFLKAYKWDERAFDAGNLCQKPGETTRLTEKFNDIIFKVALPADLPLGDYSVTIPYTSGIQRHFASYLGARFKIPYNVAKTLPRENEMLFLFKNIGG
Description: (§1) To determine the ability of PapGLD mutants to bind the porcine derived globotetraosyl ceramide ligand GalNAc-Gal-Gal-Glc-ceramide (GbO4), a Luminex ligand binding assay was developed. Surfactant Protein-A (SP-A) was coupled to the surface of MagPlex beads by EDC/NHS, to capture the lipid tail of the globotetraosyl ceramide. The Globotetraosyl ceramide/SP-A beads were incubated with an eight-point threefold titration of PapG in a 96 well flat bottom white plate with final volume of 100 microliters of 50 mM HEPES PH 7.4, 10 mM NaCl, 0.0005% Tween 20 shaking at 300 rpm, 4° C. overnight. After 20-24 hours the ligand binding plates were read on a FlexMap 3D plate reader for measurement of well-bead region specific MFI. Ligand binding equilibrium dissociation constants (Kd) were calculated assuming one site specific binding and interpolated using non-linear curve fitting (GraphPad Prism) as the ligand concentration needed to achieve half-maximal binding. The Luminex derived apparent Kd values are based on approximately fifty bead counts per assay sample.
(§2) To determine Luminex ligand binding affinities of PapG mutants for the synthetic globoside ligand Gal-Glc-phenoxy-octyl-amine (GbO2Mpo), a Luminex ligand binding assay was developed based on the direct coupling of the amine reactive globoside ligand to the EDC/NHS activated carboxylic surface of MagPlex beads. Synthesis of GbO2Mpo ligand with an octyl amine linker (for coupling to beads) was performed via methods described previously. The GbO2Mpo beads were incubated with an 8-point, threefold titration of PapG in a 96-well flat bottom white plate with final volume of 100 μl of 50 mM HEPES pH 7.4, 10 mM NaCl, 0.0005% Tween 20 shaking at 300 rpm, 4° C. overnight. After 20-24 hours the ligand binding plates were read on a FlexMap 3D plate reader for measurement of well-bead region specific MFI.
(§3) Binding of PapG proteins to GbO2 or GbO4 ligands was evaluated using a Luminex platform wherein ligands were coupled to MagPlex beads via surfactant protein A (for […]) or directly using […] conjugation (for […]). This assay was used to rank order binding affinities of the mutants, reported as Kd values interpolated from protein antigen titration curves (Table 7).

[2] = target: T2, E. coli CFT073 full-length donor strand complemented PapG-II, PapGDSF N96S N286S (Escherichia coli, UniProt A0A0H2VAQ6, N116S/N306S); conditions: HEPES pH 7.4, 4° C. overnight
T2 construct: mouse IgGK signal peptide, C-terminal 8xHis, ExpiCHO, purified
T2 sequence (A0A0H2VAQ6 with tags, fused parts or gaps N116S/N306S): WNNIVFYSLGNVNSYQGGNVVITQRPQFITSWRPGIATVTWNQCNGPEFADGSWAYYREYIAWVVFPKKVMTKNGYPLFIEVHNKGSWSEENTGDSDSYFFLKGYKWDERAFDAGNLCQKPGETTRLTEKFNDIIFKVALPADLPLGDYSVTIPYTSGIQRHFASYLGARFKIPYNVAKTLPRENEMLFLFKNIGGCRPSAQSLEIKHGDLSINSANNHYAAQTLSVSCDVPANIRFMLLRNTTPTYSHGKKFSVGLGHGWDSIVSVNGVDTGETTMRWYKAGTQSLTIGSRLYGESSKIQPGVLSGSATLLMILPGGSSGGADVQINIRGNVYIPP
Description: as §1, §2, §3

[3] = target: T3, E. coli CFT073 PapG-II lectin domain PapGLD variant N96S G75A, SEQ ID NO: 19 (Escherichia coli, UniProt A0A0H2VAQ6, G95A/N116S); conditions: HEPES pH 7.4, 4° C. overnight
T3 sequence (A0A0H2VAQ6 with tags, fused parts or gaps G95A/N116S): T1 sequence (A0A0H2VAQ6 with tags, fused parts or gaps N116S/G124A) with G95A, A124G
Description: as §1, §2, §3

[4] = GbO2Mpo beads, read-out: Kd (GbO2)
[5] = GbO4 beads, read-out: Kd (GbO4)

Substance | pKd [1, 4] | pKd [2, 4] | pKd [3, 4] | binding to GbO4 (in words) [1] | pKd [1, 5] | pKd [2, 5] | pKd [3, 5]
Gal-Glc-phenoxy-octyl-amine [GbO2] | < 6.52 | 8.80 | 8.66 | – | – | – | –
GalNAc-Gal-Gal-Glc-ceramide [GbO4] | – | – | – | lower the binding affinity; also recorded: eliminate ligand binding | < 6.52 | 8.06 | < 8.00

— patent US20260061042A1, “POLYNUCLEOTIDE COMPOSITIONS AND USES THEREOF” (Pfizer Inc., priority 2024, published 2026)
